# Earlier results as cited in patent publication US20250303004A1, “RADIOPHARMACEUTICAL COMPOSITIONS FOR LOW TOXICITY ACTINIUM IN TARGETED RADIONUCLIDE THERAPY” (Curium US LLC, priority 2021, published 2025).
# Experiments:
# [1] = tested on: kidneys and lesion of a mCRPC patient; settings: 8.1 MBq, cited from earlier work
# [2] = tested on: patient with advanced mCRPC; settings: cited from earlier work
# patients = settings: cited from earlier work
# [3] = subgroup of 11 patients with prior ^177Lu-PSMA treatment
# [4] = subgroup with prior ^177Lu-PSMA radioligand therapy
structure (smiles),measurement,setting,value
"O=C(O)CC[C@H](NC(=O)N[C@@H](CCCCNC(=O)CCCCCCC(=O)NCCCC[C@@H](NC(=O)[C@@H](Cc1ccccc1)NC(=O)[C@@H](Cc1ccc(O)c(I)c1)NC(=O)CC[C@H](C(=O)O)N1CCN(CC(=O)O)CCN(CC(=O)O)CCN(CC(=O)O)CC1)C(=O)O)C(=O)O)C(=O)O.[225Ac+3] [^225Ac-PSMA-I&T, (3S,7S,26R,29R,32R,37R)-29-benzyl-32-(4-hydroxy-3-iodobenzyl)-5,13,20,28,31,34-hexaoxo-37-(4,7,10-tris(carboxymethyl)-1,4,7,10-tetraazacyclododecan-1-yl)-4,6,12,21,27,30,33-heptaazaheptatriacontane-1,3,7,26,37-pentacarboxylic acid; Actinium-225 (III)]","absorbed dose, left kidney",[1]; SPECT/CT at 24 h p. i.,0.18 Sv(RBE=5)/MBq
same,"absorbed dose, right kidney",[1]; SPECT/CT at 24 h p. i.,0.17 Sv(RBE=5)/MBq
same,"absorbed dose, small lesion in the right hip",[1],0.26 Sv(RBE=5)/MBq
same,main TAT-related side effect,[2]; already preexisting after 10 cycles of RLT,grade 2 xerostomia
same,response,"[2]; two cycles after failure of ^177Lu-PSMA-617 (10 cycles), FIG. 6",encouraging response
same,hematological side effects,[2]; two cycles,No TAT-related grade 3/4 hematological side effects were noted
same,acute toxicity during hospitalization,"patients; 14 patients, 34 cycles, median 7.8 MBq",No acute toxicity was observed
same,hematologic toxicity,"patients; 14 patients, FIG. 13",mild
same,patients with grade 1 nephrotoxicity,"patients; 14 patients, FIG. 13",one
same,biochemical responses compared with ^225Ac-PSMA-617 TAT,patients; first clinical data,highly comparable biochemical responses
same,patients with grade 3 anemia after TAT,"patients; of 14 patients, 2 with grade 2 anemia at baseline",3 patients
same,patients reporting no xerostomia at all,patients; of 14 patients,One
same,patients with PSA decline of any amount,patients; of 14 patients,11 patients
same,patients with best PSA response (PSA decline ≥50%),patients; of 14 patients,7 patients
same,patients with grade 3 leukopenia,patients; of 14 patients,1 patients
same,patients with newly diagnosed grade 1 or 2 xerostomia after TAT,patients; of 14 patients,5 patients
same,patients with no PSA decline at any time,patients; of 14 patients,Three
same,patients with preexisting xerostomia after ^177Lu-PSMA showing no worsening after TAT,patients; of 14 patients,Eight
same,patients with PSA decline of at least 50%,patients; [3],5 patients
same,patients with any PSA decline,patients; [3],8 patients
same,PSA decline ≥50%,patients; [4],45%
same,any PSA decline,patients; [4],73%
